Experimental data published in PMC8157569 (Pharmaceuticals, 2021).
Where a name gives a salt, the structure may show the parent alone.

Target: T1, α1A-adrenoceptor (Homo sapiens, UniProt P35348)
T1 construct: gene ADRA1A
T1 sequence (P35348 1-466): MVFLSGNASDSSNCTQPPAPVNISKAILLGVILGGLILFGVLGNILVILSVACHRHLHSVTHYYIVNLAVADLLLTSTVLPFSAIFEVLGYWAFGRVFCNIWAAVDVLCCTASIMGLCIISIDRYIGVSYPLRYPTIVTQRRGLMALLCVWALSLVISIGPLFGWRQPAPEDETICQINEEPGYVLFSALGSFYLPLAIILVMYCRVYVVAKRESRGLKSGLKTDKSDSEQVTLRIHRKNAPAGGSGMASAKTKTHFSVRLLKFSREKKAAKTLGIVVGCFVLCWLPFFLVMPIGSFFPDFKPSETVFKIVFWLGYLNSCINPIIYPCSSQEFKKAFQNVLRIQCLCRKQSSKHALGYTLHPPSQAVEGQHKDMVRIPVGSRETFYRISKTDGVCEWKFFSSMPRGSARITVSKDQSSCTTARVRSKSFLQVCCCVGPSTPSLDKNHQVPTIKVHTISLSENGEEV
Assay: aequorin luminescence calcium assay, antagonist mode against phenylephrine, cells stably expressing human α1A-adrenoceptor
Assay type: cell-based

In the case of COc1ccccc1N1CCN(CCCOc2c(C)cccc2C)CC1 [MH-76, 1-[3-(2,6-dimethylphenoxy)propyl]-4-(2-methoxyphenyl)piperazine hydrochloride], the IC50 is reported as 1.42 nM.
